Test results from the CheMixHub ionic liquid set.
± gives the uncertainty stated by the source.

Test: xn = mol fraction of the nth substance listed
Conditions: 308.15 K, 101 kPa

CCCCCCCCCCCCCCCC[n+]1ccccc1.[Cl-] + C[C@@H](O)[C@H](N)C(=O)O + O
Conditions | electrical conductivity [S/m]
x2 = 0, x1 = 5.4e-07 | 0.000222 ± 2e-06
x2 = 0, x1 = 9e-07 | 0.00029 ± 3e-06
x2 = 0, x1 = 1.62e-06 | 0.0004 ± 4e-06
x2 = 0, x1 = 2.34e-06 | 0.000465 ± 5e-06
x2 = 0, x1 = 2.88e-06 | 0.000581 ± 6e-06
x2 = 0, x1 = 3.78e-06 | 0.000705 ± 7e-06
x2 = 0, x1 = 4.5e-06 | 0.000794 ± 8e-06
x2 = 0, x1 = 5.59e-06 | 0.000937 ± 9e-06
x2 = 0, x1 = 6.85e-06 | 0.00106 ± 1.1e-05
x2 = 0, x1 = 7.93e-06 | 0.001222 ± 1.2e-05
x2 = 0, x1 = 9.01e-06 | 0.001438 ± 1.4e-05
x2 = 0, x1 = 1.009e-05 | 0.00159 ± 1.6e-05
x2 = 0, x1 = 1.117e-05 | 0.001701 ± 1.7e-05
x2 = 0, x1 = 1.442e-05 | 0.00209 ± 2.1e-05
x2 = 0, x1 = 1.55e-05 | 0.00219 ± 2.2e-05
x2 = 0, x1 = 1.766e-05 | 0.00237 ± 2.4e-05
x2 = 0, x1 = 1.982e-05 | 0.00248 ± 2.5e-05
x2 = 0, x1 = 2.18e-05 | 0.00259 ± 2.6e-05
x2 = 0, x1 = 2.397e-05 | 0.00264 ± 2.6e-05
x2 = 0, x1 = 2.595e-05 | 0.00278 ± 2.8e-05
x2 = 0, x1 = 2.991e-05 | 0.00297 ± 3e-05
x2 = 0, x1 = 3.406e-05 | 0.00314 ± 3.1e-05
x2 = 0, x1 = 3.784e-05 | 0.00328 ± 3.3e-05
x2 = 0, x1 = 4.162e-05 | 0.00342 ± 3.4e-05
x2 = 0, x1 = 4.541e-05 | 0.00356 ± 3.6e-05
x2 = 0, x1 = 4.919e-05 | 0.00369 ± 3.7e-05
x2 = 0, x1 = 5.099e-05 | 0.00375 ± 3.8e-05
x2 = 0, x1 = 5.982e-05 | 0.00403 ± 4e-05
x2 = 0, x1 = 6.829e-05 | 0.00432 ± 4.3e-05
x2 = 0, x1 = 7.64e-05 | 0.00454 ± 4.5e-05
x2 = 0, x1 = 8.415e-05 | 0.00477 ± 4.8e-05
x2 = 0, x1 = 9.171e-05 | 0.00497 ± 5e-05
x2 = 0, x1 = 9.892e-05 | 0.00516 ± 5.2e-05
x2 = 0, x1 = 0.0001058 | 0.00533 ± 5.3e-05
x2 = 0, x1 = 0.0001124 | 0.0055 ± 5.5e-05
x2 = 0, x1 = 0.0001189 | 0.00565 ± 5.7e-05
x2 = 2.018e-05, x1 = 5.4e-07 | 0.000282 ± 3e-06
x2 = 2.018e-05, x1 = 9e-07 | 0.00035 ± 4e-06
x2 = 2.018e-05, x1 = 1.62e-06 | 0.000431 ± 4e-06
x2 = 2.018e-05, x1 = 2.34e-06 | 0.000514 ± 5e-06
x2 = 2.018e-05, x1 = 2.88e-06 | 0.000652 ± 7e-06
x2 = 2.018e-05, x1 = 3.78e-06 | 0.000768 ± 8e-06
x2 = 2.018e-05, x1 = 4.51e-06 | 0.00084 ± 8e-06
x2 = 2.018e-05, x1 = 5.59e-06 | 0.001003 ± 1e-05
x2 = 2.018e-05, x1 = 6.67e-06 | 0.00115 ± 1.2e-05
x2 = 2.018e-05, x1 = 7.93e-06 | 0.00127 ± 1.3e-05
x2 = 2.018e-05, x1 = 9.01e-06 | 0.00139 ± 1.4e-05
x2 = 2.018e-05, x1 = 1.009e-05 | 0.001517 ± 1.5e-05
x2 = 2.018e-05, x1 = 1.117e-05 | 0.00165 ± 1.7e-05
x2 = 2.018e-05, x1 = 1.334e-05 | 0.00188 ± 1.9e-05
x2 = 2.018e-05, x1 = 1.55e-05 | 0.00214 ± 2.1e-05
x2 = 2.018e-05, x1 = 1.766e-05 | 0.0023 ± 2.3e-05
x2 = 2.018e-05, x1 = 1.964e-05 | 0.00249 ± 2.5e-05
x2 = 2.018e-05, x1 = 2.181e-05 | 0.00259 ± 2.6e-05
x2 = 2.018e-05, x1 = 2.379e-05 | 0.00271 ± 2.7e-05
x2 = 2.018e-05, x1 = 2.595e-05 | 0.00282 ± 2.8e-05
x2 = 2.018e-05, x1 = 2.992e-05 | 0.00299 ± 3e-05
x2 = 2.018e-05, x1 = 3.388e-05 | 0.00317 ± 3.2e-05
x2 = 2.018e-05, x1 = 3.766e-05 | 0.00332 ± 3.3e-05
x2 = 2.018e-05, x1 = 4.163e-05 | 0.00348 ± 3.5e-05
x2 = 2.018e-05, x1 = 4.523e-05 | 0.00361 ± 3.6e-05
x2 = 2.018e-05, x1 = 4.902e-05 | 0.00375 ± 3.8e-05
x2 = 2.018e-05, x1 = 5.082e-05 | 0.00383 ± 3.8e-05
x2 = 2.018e-05, x1 = 5.965e-05 | 0.00411 ± 4.1e-05
x2 = 2.018e-05, x1 = 6.812e-05 | 0.00438 ± 4.4e-05
x2 = 2.018e-05, x1 = 7.623e-05 | 0.0046 ± 4.6e-05
x2 = 2.018e-05, x1 = 8.398e-05 | 0.00483 ± 4.8e-05
x2 = 2.018e-05, x1 = 9.136e-05 | 0.00502 ± 5e-05
x2 = 2.018e-05, x1 = 9.857e-05 | 0.0052 ± 5.2e-05
x2 = 2.018e-05, x1 = 0.0001054 | 0.00538 ± 5.4e-05
x2 = 2.018e-05, x1 = 0.0001121 | 0.00553 ± 5.5e-05
x2 = 2.018e-05, x1 = 0.0001186 | 0.00568 ± 5.7e-05
